Measured values from US9161930B2, “Pharmaceutical composition for diabetic nephropathy and its preparation and application” (Guangzhou Consun Medicine R & D Co., Ltd., priority 2009, dated 2015).

Legend:
[1] = system: Rat messangial cell line HBZY-1; test: Hydroxyproline content in supernatant of rat mesangial cells induced by AGEs; assay type: cell-based; conditions: AGEs 0.25 mg/ml, 48 h, supernatant of HBZY-1 cells
Experimental: Dissolved the 5% bovine serum albumin (BSA) without globulin and 0.5 mol/L D-amylaceum in 0.2 mol/L phosphate buffered solution (PBS, PH=7.2), filtrated with 0.24 μm micropore film and incubated under 37° C. for 60 days. After the incubation of the advanced glycation end products (AGEs) were finished, the umcombinated material was cleaned by extend dialyse method. Diluted to a necessary concentration and filtrated with 0.22 μm micropore film.
Prepare of unicell suspension with HBZY-1 cells in log phase growth and DMEM medium with 5% newborn calf serum, take 100 μl/well (cell quantities: 1×10^4/well) to the 96-well plate, incubated under 5% CO2 incubator at 37° C. for 24 hours, change with 100 μl the DMEM without serum and incubate another 24 hours to make the cells to anestrum (synchronization). Discard of the supernatant, add 90 μl DMEM medium with 5% newborn calf serum and 10 μl the different concentration of AGEs by gradient dilution with 6 repeat per group, incubate by gradient time, respectively, determinate the proliferation degree of rat mesangial cells by MTT.
(§1) Put the coverslips pre-treated by poly-L-lysine into 24-well cell culture plates, in order to make the HBZY-1 cells grow on until synchronization. Discard of the supernatant, add 800 μl DMEM medium, 100 μl AGEs (final concentration is 0.25 mg/ml) in each medicine group, then add 100 μl water extract of Cortex Mori (final concentration is 0.1 g/L) or DPMC (final concentration is 0.5, 5, 25 or 125 nM/L). The normal control group is added 1 ml DEME medium when the AGEs group is added 900 μl DMEM medium and 100 μl AGEs (final concentration was 0.25 mg/ml). Every group repeats for 6 times. Then, all the groups are incubated under 5% CO2 incubator at 37° C. for 48 h. Take suction of the cell supernatant for the content determination of hydroxyproline after the cells completely covered the coverslips and take out of the coverslips for immunocytochemistry staining.
Determinate the hydroxyproline content in cultured fluid of rat mesangial cells and express as x±s, analyze by t-test; observate the TGFβ-1 expression in immunohistochemistry photo of rat mesangial cells under microscope.

TGFβ-1 = TGFβ-1 expression of rat mesangial cells induced by AGEs (immunocytochemistry staining); assay type: cell-based; conditions: 48 h, FIG. 1
Experimental: as §1, with “staining. […]” for “staining.”

[2] = system: STZ diabetic nephropathy model rat; test: 24 hour urine indicators in rat model of diabetic nephropathy induced by STZ; assay type: in vivo, Wistar rat; conditions: 14 weeks; for Total protein (mg) of urine / micro-albumen / urine creatinine: 24 hour urine
Experimental: (§2) Model by administrating of low dose STZ for several times and determinate as the model rat of diabetic nephropathy, divide into 6 groups with 10 mice/group: model group, positive drug control group (aminoguanidine, 100 mg/kg), water extract of Cortex Mori group, 3 different concentration doses of DPMC group (high dose group: 4 mg/kg; middle dose group: 2 mg/kg; low dose: 1 mg/kg), normal control group.
(§3) Each group is given the same volume corresponding drug in different concentration or physiological saline everyday by intragastric administration for 14 weeks.
(§4) Collect the 24 hour urine after administration is over, calculate the urine volume and determinate the content of total protein of urine, micro-albumen and urine creatinine; obtain blood by eye sockets and determinate the biochemical indicator with automatic biochemistry analyzer; take out of the double kidneys, fix with formalin and remain to histopathologic examination.
(§5) Statistical analysis of all determinations is calculated by interclass t-test and expressed as x±s.

[3] = system: STZ diabetic nephropathy model rat; test: Serum biochemical indicators in rat of diabetic nephropathy (STZ); assay type: in vivo, Wistar rat; conditions: 14 weeks
Experimental: as §2, §3, §4, §5

CTGF = CTGF expression of rat glomcrulus in model of diabetic nephropathy; assay type: in vivo, Wistar rat; conditions: 14 weeks, STZ rat
Experimental: as §2, §3, §4, §5

[4] = system: STZ diabetic nephropathy model rat; test: Pathohistology (pathology score) of rat glomcrulus in model of diabetic nephropathy; assay type: in vivo, Wistar rat; conditions: 14 weeks
Experimental: as §2, §3, §4, §5

[5] = 100 mg/kg intragastric everyday

Structure (SMILES): COC(=O)Nc1ccc(Cc2ccc(NC(=O)OC)cc2)cc1 [DPMC, 4,4′-diphenylmethane-bis(methyl) carbamates]
- hydroxyproline ([1]; 0.5 nM/L): 7.68 ± 1.10 µg/mL
- hydroxyproline ([1]; 5 nM/L): 7.76 ± 1.21 µg/mL
- hydroxyproline ([1]; 25 nM/L): 5.71 ± 1.18 µg/mL
- hydroxyproline ([1]; 125 nM/L): 4.76 ± 0.58 µg/mL
- TGFβ-1 expression of rat mesangial cells induced by AGEs (TGFβ-1; different doses 0.5, 5, 25, 125 nM/L): restrain the TGFβ-1 expression increase
- TGFβ-1 expression of rat mesangial cells induced by AGEs (TGFβ-1; large dose 125 nM/L): performs best
- Urine V (24 hr, ml) ([2]; 1 mg/kg intragastric everyday): 59.9 ± 21.8 mL
- Total protein (mg) of urine ([2]; 1 mg/kg intragastric everyday): 69.1 ± 20.4 mg
- micro-albumen ([2]; 1 mg/kg intragastric everyday): 1.57 ± 0.56 mg
- urine creatinine ([2]; 1 mg/kg intragastric everyday): 1.4 ± 0.6 mmol/L
- Urine V (24 hr, ml) ([2]; 2 mg/kg intragastric everyday): 41.3 ± 16.4 mL
- Total protein (mg) of urine ([2]; 2 mg/kg intragastric everyday): 54.0 ± 17.4 mg
- micro-albumen ([2]; 2 mg/kg intragastric everyday): 0.93 ± 0.55 mg
- urine creatinine ([2]; 2 mg/kg intragastric everyday): 2.9 ± 1.2 mmol/L
- Urine V (24 hr, ml) ([2]; 4 mg/kg intragastric everyday): 33.9 ± 22.2 mL
- Total protein (mg) of urine ([2]; 4 mg/kg intragastric everyday): 46.2 ± 21.6 mg
- micro-albumen ([2]; 4 mg/kg intragastric everyday): 0.92 ± 0.42 mg
- urine creatinine ([2]; 4 mg/kg intragastric everyday): 4.3 ± 2.0 mmol/L
- AGEs ([3]; 1 mg/kg intragastric everyday): 290 ± 59
- BUN ([3]; 1 mg/kg intragastric everyday): 7.0 ± 1.0 mmol/L
- LDL ([3]; 1 mg/kg intragastric everyday): 1.91 ± 0.55 mmol/L
- MDA ([3]; 1 mg/kg intragastric everyday): 7.8 ± 2.3 nmol/L
- SC (umol/L), serum creatinine ([3]; 1 mg/kg intragastric everyday): 91.0 ± 31.1 µmol/L
- SOD (U/ml) ([3]; 1 mg/kg intragastric everyday): 498 ± 33 U/ml
- TG ([3]; 1 mg/kg intragastric everyday): 3.23 ± 0.76 mmol/L
- AGEs ([3]; 2 mg/kg intragastric everyday): 289 ± 56
- BUN ([3]; 2 mg/kg intragastric everyday): 6.6 ± 1.2 mmol/L
- LDL ([3]; 2 mg/kg intragastric everyday): 1.51 ± 0.53 mmol/L
- MDA ([3]; 2 mg/kg intragastric everyday): 6.8 ± 1.9 nmol/L
- SC (umol/L), serum creatinine ([3]; 2 mg/kg intragastric everyday): 76.6 ± 24.5 µmol/L
- SOD (U/ml) ([3]; 2 mg/kg intragastric everyday): 513 ± 41 U/ml
- TG ([3]; 2 mg/kg intragastric everyday): 2.76 ± 0.80 mmol/L
- AGEs ([3]; 4 mg/kg intragastric everyday): 281 ± 78
- BUN ([3]; 4 mg/kg intragastric everyday): 6.5 ± 1.5 mmol/L
- LDL ([3]; 4 mg/kg intragastric everyday): 1.43 ± 0.36 mmol/L
- MDA ([3]; 4 mg/kg intragastric everyday): 6.8 ± 1.3 nmol/L
- SC (umol/L), serum creatinine ([3]; 4 mg/kg intragastric everyday): 74.0 ± 17.1 µmol/L
- SOD (U/ml) ([3]; 4 mg/kg intragastric everyday): 520 ± 29 U/ml
- TG ([3]; 4 mg/kg intragastric everyday): 2.57 ± 0.80 mmol/L
- CTGF(%) (CTGF; 1 mg/kg intragastric everyday): 7.1 ± 1.6 %
- CTGF(%) (CTGF; 2 mg/kg intragastric everyday): 6.4 ± 2.7 %
- CTGF(%) (CTGF; 4 mg/kg intragastric everyday): 6.0 ± 3.1 %
- Pathology score ([4]; 1 mg/kg intragastric everyday): 2.7 ± 1.0
- Pathology score ([4]; 2 mg/kg intragastric everyday): 1.8 ± 1.3
- Pathology score ([4]; 4 mg/kg intragastric everyday): 1.2 ± 1.1

Structure (SMILES): N=C(N)NN [aminoguanidine, reference compound]
- Urine V (24 hr, ml) [2, 5]: 36.2 ± 21.7 mL
- Total protein (mg) of urine [2, 5]: 43.2 ± 29.9 mg
- micro-albumen [2, 5]: 1.00 ± 0.27 mg
- urine creatinine [2, 5]: 4.0 ± 2.3 mmol/L
- AGEs [3, 5]: 283 ± 78
- BUN [3, 5]: 6.6 ± 0.8 mmol/L
- LDL [3, 5]: 2.01 ± 0.58 mmol/L
- MDA [3, 5]: 5.9 ± 1.7 nmol/L
- SC (umol/L), serum creatinine [3, 5]: 77.7 ± 20.3 µmol/L
- SOD (U/ml) [3, 5]: 516 ± 20 U/ml
- TG [3, 5]: 3.35 ± 0.87 mmol/L
- CTGF(%) (CTGF; [5]): 5.9 ± 2.2 %
- Pathology score [4, 5]: 2.1 ± 1.0
